Assay [1] addresses T1, dopamine D2 receptor (D2R, D2L long isoform) (Homo sapiens, UniProt P14416). Description: cell-based. To be noted: read-out: % of the mean response to 1 μM dopamine.
For assay [2], the target named is dopamine D3 receptor (D3R) (Homo sapiens, UniProt P35462). Briefly: GIRK1/[…] current activation in Xenopus oocytes expressing D3R. It is filed as cell-based.
Assay [3] addresses T1, dopamine D2 receptor (D2R, D2L long isoform). Description: GIRK1/[…] current activation in Xenopus oocytes. It is filed as cell-based.

T1 sequence (P14416 whole entry, canonical isoform): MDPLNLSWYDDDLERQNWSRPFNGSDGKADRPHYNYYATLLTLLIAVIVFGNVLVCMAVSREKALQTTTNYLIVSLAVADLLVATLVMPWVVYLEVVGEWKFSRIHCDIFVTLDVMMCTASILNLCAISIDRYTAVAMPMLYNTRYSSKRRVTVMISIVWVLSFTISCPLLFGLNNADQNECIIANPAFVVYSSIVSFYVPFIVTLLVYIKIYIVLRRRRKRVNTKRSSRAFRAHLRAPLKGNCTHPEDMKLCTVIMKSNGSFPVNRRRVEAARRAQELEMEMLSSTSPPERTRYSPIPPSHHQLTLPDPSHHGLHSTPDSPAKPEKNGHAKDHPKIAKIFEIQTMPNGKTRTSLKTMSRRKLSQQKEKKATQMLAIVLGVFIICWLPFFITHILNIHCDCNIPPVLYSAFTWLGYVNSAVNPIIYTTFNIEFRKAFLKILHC
Chain of dopamine D3 receptor (D3R) (P35462 whole entry, canonical isoform): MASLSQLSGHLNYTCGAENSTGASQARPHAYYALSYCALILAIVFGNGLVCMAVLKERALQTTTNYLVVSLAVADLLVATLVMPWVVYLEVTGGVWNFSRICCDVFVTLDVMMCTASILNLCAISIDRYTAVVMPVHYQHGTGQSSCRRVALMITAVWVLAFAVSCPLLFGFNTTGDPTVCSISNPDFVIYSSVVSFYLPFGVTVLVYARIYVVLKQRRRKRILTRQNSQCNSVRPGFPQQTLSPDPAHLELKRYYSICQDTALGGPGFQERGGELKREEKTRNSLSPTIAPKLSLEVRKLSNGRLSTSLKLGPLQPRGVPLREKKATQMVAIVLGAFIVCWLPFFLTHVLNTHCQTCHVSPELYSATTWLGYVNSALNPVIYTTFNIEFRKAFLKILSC

For `CCCN1CCC[C@@H](c2cccc(O)c2)C1` [(-)-3-PPP], the Emax in assay [1] was determined as 27.7 ± 7.5%.
For orientation: EC50 means the concentration giving half of the maximal effect. Consider `Clc1cccc(C2CCN(CCCOc3ccc4scnc4c3)CC2)c1Cl` [UNC9994], for which the figures for the EC50 in assay [2] and in assay [3] were 62.1 nM and 185 nM, respectively.

The values are drawn from article PMC6276031 (International Journal of Neuropsychopharmacology, 2018).
